Source: patent US20220400680A1, “USE OF ACYLCYANAMIDES OR SALTS THEREOF FOR REGULATING PLANT GROWTH” (Alzchem Trostberg GmbH, priority 2019, published 2022)

How the values were obtained:
[1] = system: Table apple, type Boiken apple (C1); assay: Greenhouse test, cut apple branches C1 dipped in test solution, bud development stage; type: in vivo, Malus domestica; set-up: key to Bud development stage, apple branches C1: Stage 0: Buds unchanged; Stage 1: Buds slightly swollen, first green tips visible; Stage 2: strongly swollen, green buds; Stage 3: Buds before breaking open, leaf or flower root already visible; Stage 4: Flower buds fully developed, but still closed, white petals already visible. In the case of the grapevine, stage 4 was the unfolding of the first leaves; Stage 5: Flowers fully open or, in the case of grapevine, unfolding of the flower roots (“Gescheine”) on the fully leafed sprouts; conditions: for Good to very good dormancy-breaking effect, apple C1: stage 4 reached or exceeded after 27 days vs negative control; for Dormancy-breaking effect according to the definition, apple C1: stage 4 reached or exceeded after 36 days vs negative control
Procedure: Greenhouse tests were conducted using cut fruit tree branches placed in water jars and maintained under controlled conditions with temperature regulation at approximately 22° C. and natural lighting. C1: Table Apple, Type Boiken Apple Table apple: Malus domestica type Boiken first described in 1828 in Bremen after Deichvogt Boiken. Apple type for rough locations and for almost every soil suitable scattered fruit type, whereby heavy soils and not too warm locations are required. Tree growth initially strong, later medium. Older crowns become broadly spherical and are loosely branched. Flowering starting medium-late and long lasting, petals large with little pink. Yield starting late (October) and irregular; with long shelf life and pressure resistance. […] The test solutions were prepared directly, i.e. without intermediate preparation of a concentrate. For each of the test substances A-1 to A-13, an aqueous solution of 0.15 mol of the test substance and 0.15 g BreakThru® OE-446 was prepared and filled up to a total of 500 g with water. Of bis-cyanamides A-14 and A-15, 0.075 mol each was filled up to 500 g in an analogous manner. These test solutions (in combination with the above 4 species/types Cx) were given the test numbers Cx-A1 to Cx-A15. […] This was done with the following evaluation scale: • Stage 0: […] Flower buds fully developed, but still closed, white petals already visible. […] Flowers fully open or, in the case of grapevine, unfolding of the flower roots (“[…]”) on the fully leafed sprouts.

[2] = system: Table apple, type Zabergäu-Renette (C2); assay: Greenhouse test, cut apple branches C2 dipped in test solution, bud development stage; type: in vivo, Malus domestica; set-up: key to Bud development stage, apple branches C2: Stage 0: Buds unchanged; Stage 1: Buds slightly swollen, first green tips visible; Stage 2: strongly swollen, green buds; Stage 3: Buds before breaking open, leaf or flower root already visible; Stage 4: Flower buds fully developed, but still closed, white petals already visible. In the case of the grapevine, stage 4 was the unfolding of the first leaves; Stage 5: Flowers fully open or, in the case of grapevine, unfolding of the flower roots (“Gescheine”) on the fully leafed sprouts
Procedure: Greenhouse tests were conducted using cut fruit tree branches placed in water jars and maintained under controlled conditions with temperature regulation at approximately 22° C. and natural lighting. C2: Table Apple, Type […] Table apple: Malus domestica type […] first developed in 1885 as a chance seedling in Hausen a.d. Zaber/Baden-Württemberg and initially grown as 'Hausener Graue […]'. No defined storage type; requires heavy soils (loam). Tree growth initially strong with oblique upright leading branches, later medium with flat branches. Crown broad and flat-spherical with flat fruiting wood. Leaves large, broad oval and with clearly separated tip. Triploid type with late and long-lasting flowering. Yield starting early, medium high and somewhat alternate. […] The test solutions were prepared directly, i.e. without intermediate preparation of a concentrate. For each of the test substances A-1 to A-13, an aqueous solution of 0.15 mol of the test substance and 0.15 g BreakThru® OE-446 was prepared and filled up to a total of 500 g with water. Of bis-cyanamides A-14 and A-15, 0.075 mol each was filled up to 500 g in an analogous manner. These test solutions (in combination with the above 4 species/types Cx) were given the test numbers Cx-A1 to Cx-A15. […] This was done with the following evaluation scale: • Stage 0: […] Flower buds fully developed, but still closed, white petals already visible. […] Flowers fully open or, in the case of grapevine, unfolding of the flower roots (“[…]”) on the fully leafed sprouts.

[3] = system: Table cherry, type Burlat (C3); assay: Greenhouse test, cut cherry branches C3 dipped in test solution, bud development stage; type: in vivo, Prunus avium; set-up: key to Bud development stage, cherry branches C3: Stage 0: Buds unchanged; Stage 1: Buds slightly swollen, first green tips visible; Stage 2: strongly swollen, green buds; Stage 3: Buds before breaking open, leaf or flower root already visible; Stage 4: Flower buds fully developed, but still closed, white petals already visible. In the case of the grapevine, stage 4 was the unfolding of the first leaves; Stage 5: Flowers fully open or, in the case of grapevine, unfolding of the flower roots (“Gescheine”) on the fully leafed sprouts
Procedure: Greenhouse tests were conducted using cut fruit tree branches placed in water jars and maintained under controlled conditions with temperature regulation at approximately 22° C. and natural lighting. C3: Table Cherry, Type Burlat Table cherry: Prunus avium type Bigarreau Burlat or […] is a strong-growing somewhat sparse growing sweet cherry tree with horizontal side sprouts. The type has been known since 1930 and is one of the most important types in commercial cultivation. […] Medium but regular yields identify the type as a secondary type for early and dry areas. […] The test solutions were prepared directly, i.e. without intermediate preparation of a concentrate. For each of the test substances A-1 to A-13, an aqueous solution of 0.15 mol of the test substance and 0.15 g BreakThru® OE-446 was prepared and filled up to a total of 500 g with water. Of bis-cyanamides A-14 and A-15, 0.075 mol each was filled up to 500 g in an analogous manner. These test solutions (in combination with the above 4 species/types Cx) were given the test numbers Cx-A1 to Cx-A15. […] This was done with the following evaluation scale: • Stage 0: […] Flower buds fully developed, but still closed, white petals already visible. […] Flowers fully open or, in the case of grapevine, unfolding of the flower roots (“[…]”) on the fully leafed sprouts.

[4] = system: Grape, type Pinot Noir (C4); assay: Greenhouse test, cut wine sprouts C4 dipped in test solution, bud development stage; type: in vivo, Vitis vinifera subsp. vinifera; set-up: key to Bud development stage, wine sprouts C4: Stage 0: Buds unchanged; Stage 1: Buds slightly swollen, first green tips visible; Stage 2: strongly swollen, green buds; Stage 3: Buds before breaking open, leaf or flower root already visible; Stage 4: Flower buds fully developed, but still closed, white petals already visible. In the case of the grapevine, stage 4 was the unfolding of the first leaves; Stage 5: Flowers fully open or, in the case of grapevine, unfolding of the flower roots (“Gescheine”) on the fully leafed sprouts
Procedure: Greenhouse tests were conducted using cut fruit tree branches placed in water jars and maintained under controlled conditions with temperature regulation at approximately 22° C. and natural lighting. C4: Grape, Type Pinot Noir Grape: Vitis vinifera subsp. vinifera type Pinot Noir is an important and high quality red wine type that has existed for possibly 2000 years. It is cultivated all over the world because the type produces high quality red wines and has sufficient winter frost resistance. The type requires early and good areas with deep, warm, medium-heavy and fertile soils with good water supply. Pinot Noir produces regular, medium-high to high yields. However, there are a large number of clones that differ in yield, berry size and looseness. […] The test solutions were prepared directly, i.e. without intermediate preparation of a concentrate. For each of the test substances A-1 to A-13, an aqueous solution of 0.15 mol of the test substance and 0.15 g BreakThru® OE-446 was prepared and filled up to a total of 500 g with water. Of bis-cyanamides A-14 and A-15, 0.075 mol each was filled up to 500 g in an analogous manner. These test solutions (in combination with the above 4 species/types Cx) were given the test numbers Cx-A1 to Cx-A15. […] This was done with the following evaluation scale: • Stage 0: […] Flower buds fully developed, but still closed, white petals already visible. […] Flowers fully open or, in the case of grapevine, unfolding of the flower roots (“[…]”) on the fully leafed sprouts.

[5] = T1 (14 d), 0.15 mol (A-14, A-15: 0.075 mol) per 500 g solution
[6] = stage 4 reached or exceeded after 36 days vs negative control

| Compound | Bud development stage, apple branches C1 [1, 5] | Bud development stage, apple branches C1 ([1]; T2 (16 d)) | Bud development stage, apple branches C1 ([1]; T3 (21 d)) | Bud development stage, apple branches C1 ([1]; T4 (27 d)) | Bud development stage, apple branches C1 ([1]; T5 (36 d)) | Bud development stage, apple branches C1 ([1]; T6 (56 d)) | Good to very good dormancy-breaking effect, apple C1 [1] | Dormancy-breaking effect according to the definition, apple C1 [1] | Bud development stage, apple branches C2 [2, 5] | Bud development stage, apple branches C2 ([2]; T2 (16 d)) | Bud development stage, apple branches C2 ([2]; T3 (21 d)) | Bud development stage, apple branches C2 ([2]; T4 (27 d)) | Bud development stage, apple branches C2 ([2]; T5 (36 d)) | Bud development stage, apple branches C2 ([2]; T6 (56 d)) | Bud development stage, cherry branches C3 [3, 5] | Bud development stage, cherry branches C3 ([3]; T2 (16 d)) | Bud development stage, cherry branches C3 ([3]; T3 (21 d)) | Bud development stage, cherry branches C3 ([3]; T4 (27 d)) | Bud development stage, cherry branches C3 ([3]; T5 (36 d)) | Bud development stage, cherry branches C3 ([3]; T6 (56 d)) | also measured |
| --- | --- | --- | --- | --- | --- | --- | --- | --- | --- | --- | --- | --- | --- | --- | --- | --- | --- | --- | --- | --- | --- |
| CCCC(=O)NC#N.[Na] [Example A-6, Sodium butyryl cyanamide] | 2 | 3 | 4 | 5 | 5 | 5 | good to very good dormancy-breaking effect | dormancy-breaking effect | 0 | 0 | 1 | 2 | 5 | 5 | 1 | 1 | 3 | 5 | 5 | 5 | Dormancy-breaking effect according to the definition, apple C2 [2, 6]: dormancy-breaking effect; Dormancy-breaking effect according to the definition, cherry C3 ([3]; stage 4 reached or exceeded after 27 days vs negative control): dormancy-breaking effect; Bud development stage, wine sprouts C4 [4, 5]: 0; Bud development stage, wine sprouts C4 ([4]; T2 (16 d)): 0; Bud development stage, wine sprouts C4 ([4]; T3 (21 d)): 0; Bud development stage, wine sprouts C4 ([4]; T4 (27 d)): 1; Bud development stage, wine sprouts C4 ([4]; T5 (36 d)): 2; Bud development stage, wine sprouts C4 ([4]; T6 (56 d)): 5 |
| CC(C)(C)C(=O)NC#N.[Na] [Example A-8, Sodium pivaloyl cyanamide] | 0 | 0 | 2 | 4 | 4 | 4 | good to very good dormancy-breaking effect | dormancy-breaking effect | 0 | 0 | 0 | 1 | 2 | 4 | 0 | 0 | 1 | 2 | 4 | 5 | Bud development stage, wine sprouts C4 [4, 5]: 0; Bud development stage, wine sprouts C4 ([4]; T2 (16 d)): 0; Bud development stage, wine sprouts C4 ([4]; T3 (21 d)): 0; Bud development stage, wine sprouts C4 ([4]; T4 (27 d)): 1; Bud development stage, wine sprouts C4 ([4]; T5 (36 d)): 4; Bud development stage, wine sprouts C4 ([4]; T6 (56 d)): 5; Dormancy-breaking effect according to the definition, wine C4 [4, 6]: dormancy-breaking effect |
